Patent US5739131A, “Benzene derivatives and pharmaceutical composition” (Kureha Chemical Industry Co., Ltd., priority 1994, dated 1998)

Experiments:
[1] = system: kidney disease model rats; test: Action to survival time of kidney diseased animals; type: in vivo, Sprague-Dawley female rats; details: 20 mg/kg/day per os, observation eight weeks (upper limit); control 5.0
Procedure: The kidney disease model rats were prepared as in Example 115. Twenty-five groups (8 rats per group) were prepared in a manner so that there was no major difference between the groups in the serum creatinine value and the urea nitrogen value indicating renal function. The rats in each group were allowed to freely take up feed and water. […] To the rats in the control group, only water was forcedly administered per os every day. If kidney diseases are aggravated, the rat will die of uremia. Thus, the survival time was observed as comprehensive indication of the improvement effect on the kidney diseases. The observation period was eight weeks. Thus if all rats survived, the average survival time is eight weeks and it is an upper limit.

hyperlipemia model rats = details: cited from earlier work
[2] = system: kidney disease model rats; test: Action to depress blood pressure (tail cuff method); type: in vivo, Sprague-Dawley female rats; details: 20 mg/kg per os; for Blood pressure: systolic, average, two days from administration, control (water) 203
Procedure: The compounds of the present invention and the reference substance were forcedly administered per os to kidney disease model rats, and the action to depress blood pressure was observed. The kidney disease model rats were prepared by ligature of branches of renal artery in accordance with the conventional method, that is, the left hilum renalis of Sprague-Dawley female rats was exposed under anesthesia, and one of four secondary branches of renal artery was left unligated, while the remaining three branches were ligated, respectively. After a week, the hilum renalis (artery, vein, and ureter) of the right kidney were further ligated to thereby prepare the rats whose renal function was lowered to approximately 1/8 of the normal function. Each group consisted of eight rats. The drugs to be tested (20 mg/kg) were administered to each administering group, and only water was administered to control group. After two days from the administration, the systolic blood pressure was measured by the tail cuff method using a blood pressure measuring apparatus (UR5000; Ueda).

[3] = system: kidney disease model rats; test: Renal function indicatory value (action to kidney diseases); type: in vivo, Sprague-Dawley female rats; details: 20 mg/kg/day per os, two weeks; for Creatinine clearance: 24 hours urine, control 0.20; for Creatinine / Urea nitrogen: serum; for Creatinine: control 2.0; for Urea nitrogen: control 100
Procedure: The kidney disease model rats were prepared as in Example 115. Twenty-five groups (8 rats per group) were sleeked in a manner so that there were no major differences between each group in the serum creatinine value and the urea nitrogen value indicating renal function. The rats in each group were allowed to freely take up feed and water. […] To the rats in the control group, only water was forcedly administered per os every day. After two weeks, 0.2 ml of blood was collected from the carotid artery of the rat under anesthesia, and centrifuged to obtain serum. Using 25 μl of the serum, serum creatinine (Scr) was measured by a creatinine analytical instrument (Beckman). Using 10 μl of the serum, urea nitrogen (BUN) was measured by a BUN analytical instrument (Beckman). Creatinine clearance was evaluated as follows:
After serum creatinine measurement, rats were placed in urinary metabolic cages for 24 hours to collect urine. Urinary creatine concentration (Ucr) was measured by a creatinine analytical instrument, and total volume of urination (Uvol) was also measured. Creatinine clearance (CCr) was calculated by the following formula: [formula]

renal dysfunction = details: in vivo; cited from earlier work
mice = test: Acute toxicity, single oral dose; type: in vivo
Procedure: Five-week-old ICR female mice (5 mice per group) were bred for acclimation for a week. Then, the compounds of the present invention were dissolved or dispersed in an aqueous solution of 0.5% methylcellulose, and orally administered to the mice in a single dosage (500 mg/kg).

[4] = molecular target: T1, angiotensin II receptor subtype 1 (AT1) (Oryctolagus cuniculus, UniProt P34976); test: Binding assay, angiotensin II receptor subtype 1 (AT1); set-up: species or system rabbit (adrenal glands); details: for inhibition at 100 µM: AT1, rabbit adrenal glands
T1 construct: receptor: from adrenal glands in rabbits; from tissue; host or cells: rabbit adrenal glands
T1 sequence (P34976 1-359): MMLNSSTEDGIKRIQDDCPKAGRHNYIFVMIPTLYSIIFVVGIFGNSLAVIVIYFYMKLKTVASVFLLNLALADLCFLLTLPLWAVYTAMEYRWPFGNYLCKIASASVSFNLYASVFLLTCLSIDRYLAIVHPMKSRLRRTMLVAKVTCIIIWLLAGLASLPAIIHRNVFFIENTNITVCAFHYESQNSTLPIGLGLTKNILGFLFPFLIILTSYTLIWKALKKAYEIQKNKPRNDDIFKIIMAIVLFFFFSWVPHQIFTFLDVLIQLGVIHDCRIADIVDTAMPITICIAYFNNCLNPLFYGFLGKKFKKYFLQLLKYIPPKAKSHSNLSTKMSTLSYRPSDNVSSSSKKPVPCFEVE
Procedure: (§1) In this Example, the affinity to the angiotensin II receptor subtype 1 or subtype 2 was evaluated by a binding assay in accordance with the method described in Biochem. Pharmacol., 33, 4057-4062 (1984).
(§2) Specifically, the measurement of the total binding in the presence of each drug was performed as follows:
(§3) A mixture (final volume=0.25 ml) of a drug in a given concentration (the drug was dissolved in DMSO, and diluted to a double volume with a buffer attached to a drug discovery system to prepare sample for the assay; 0.025 ml), a tracer (0.025 ml), and receptors (0.2 ml) was incubated [in the case of the angiotensin II receptor subtype 1 (AT1), at room temperature for 3 hours, and in the case of the subtype 2 (AT2), at 37° C. for 1 hour]. Then, the reaction mixture was filtered with suction (GF/C filter was used in AT1, and GF/B filter was used in AT2). The filter papers after filtration with suction (the tracer bound to the receptors) were counted by a γ-well counter (ARC-500, Aloka). The non-specific bindings were measured by repeating the above method, except that a large excess amount of a displacer was added. The specific binding of the drug in the given concentration was calculated by subtracting the non-specific binding from the total binding, respectively.
(§4) In AT1 and AT2, the percentages to inhibit the bindings of radioactive ligands (tracer) to receptors by the drugs to be tested (IC50 value of concentration to show 50% inhibition, or binding inhibition % in 100 μM) were measured, using the drugs to be tested and control drugs in the given concentration.

[5] = molecular target: T2, angiotensin II receptor subtype 2 (AT2) (Bos taurus, UniProt G5E6F7); test: Binding assay, angiotensin II receptor subtype 2 (AT2); set-up: species or system bovine (cerebellar cortex); details: 100 μM, AT2, bovine cerebellar cortex, 37° C. 1 hour; read-out: Binding inhibition % in 100 μm, AT2
T2 construct: receptor: from cerebellar cortex in bovine; from tissue; host or cells: bovine cerebellar cortex
T2 sequence (G5E6F7 1-362): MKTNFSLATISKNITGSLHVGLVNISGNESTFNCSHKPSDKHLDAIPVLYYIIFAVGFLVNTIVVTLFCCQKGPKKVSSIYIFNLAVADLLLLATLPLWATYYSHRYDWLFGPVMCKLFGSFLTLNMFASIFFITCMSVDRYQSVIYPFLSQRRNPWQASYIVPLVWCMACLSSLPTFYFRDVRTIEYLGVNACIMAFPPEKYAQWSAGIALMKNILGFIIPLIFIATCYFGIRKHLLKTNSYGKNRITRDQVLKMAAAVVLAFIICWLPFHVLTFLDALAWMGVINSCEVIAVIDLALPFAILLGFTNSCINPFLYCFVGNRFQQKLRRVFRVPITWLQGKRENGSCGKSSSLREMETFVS
Procedure: as §1, §2, §3, §4
receptor: from cerebellar cortex in bovine
tracer: ^125 ITyr^4angiotensin II
control drug: angiotensin II (human)
(displacer): angiotensin II (human)

Structure (SMILES) | Average survival time [1] [weeks] | Blood pressure (hyperlipemia model rats; large dose) | effect to blood pressure (hyperlipemia model rats; lower dose) | kidney disease improvement (hyperlipemia model rats; lower dose) | action to depress the blood pressure ([2]; in comparison with control group) | Blood pressure [2] [mmHg] | Creatinine clearance [3] [mL/min] | Creatinine [3] [mg/dL] | Urea nitrogen [3] [mg/dL] | Blood pressure (renal dysfunction) | progress of renal dysfunction (renal dysfunction) | Number of deaths/number of survivals (mice; mice, single oral 500 mg/kg, observed for 6 days, 5 per group) | IC50 ([4]; tracer 3H angiotensin II, room temperature 3 hours, read-out: IC50 AT1) [µM] | inhibition at 100 µM [5] [%] | Number of deaths/number of survivals (mice; mouse, in vivo, po, 500 mg/kg) | inhibition at 100 µM [4] [%]
CCCCc1nc(Cl)c(CO)n1Cc1ccc(-c2ccccc2-c2nnn[nH]2)cc1 [DuP753, 2-butyl-4-chloro-5-(hydroxymethyl)-1-[[2'-(1H-tetrazol-5-yl)biphenyl-4-yl]methyl]imidazole, reference compound] | 6.9 | an evident reduction of blood pressure was observed | without practical effect to blood pressure | the kidney disease was improved in a lower dose | clearly showed the action to depress the blood pressure | 135 | 0.32 | 1.6 | 80 |  |  |  |  |  |  | 
C[C@H](CS)C(=O)N1CCC[C@H]1C(=O)O [captoril] |  |  |  |  |  |  |  |  |  | blood pressure is lowered | the progress of renal dysfunction is improved |  |  |  |  | 
CCOC(=O)[C@H](CCc1ccccc1)N[C@@H](C)C(=O)N1CCC[C@H]1C(=O)O [enalapril] |  |  |  |  |  |  |  |  |  | blood pressure is lowered | the progress of renal dysfunction is improved |  |  |  |  | 
CCCCC(=O)Nc1ccc(C(=O)N2CCOCC2)cc1OCc1ccc(-c2ccccc2-c2nnn[nH]2)cc1 [Compound No. 587, 3-[[2'-(1H-tetrazol-5-yl)biphenyl-4-yl]methyloxy]-4-valeramidobenzoic acid morpholide] | 7.0 |  |  |  |  | 201 | 0.34 | 1.7 | 77 |  |  | 0/5 | 7.9 | 0 |  | 
CCCCC(=O)N(Cc1ccc(-c2nn[nH]n2)cc1)c1cc(C(=O)N2CCOCC2)ccc1N(C)C [Compound No. 604, 4-dimethylamino-3-N-[[4-(1H-tetrazol-5-yl)phenylmethyl]valeramido]benzoic acid morpholide] | 7.0 |  |  |  |  | 200 | 0.28 | 1.8 | 75 |  |  |  |  | 0 | 0/5 | 15
CCCCC(=O)N(Cc1ccc(C(=O)O)cc1)c1cc(C(=O)N2CCOCC2)ccn1 [Compound No. 467, 2-N-[[(4-carboxyphenyl)methyl]valeramido]isonicotinic acid morpholide] | 7.0 |  |  |  |  | 200 | 0.25 | 1.8 | 74 |  |  |  |  | 0 | 0/5 | 16
CCCCCN(Cc1ccc(C(=O)O)cc1)c1cccc(C(=O)N2CCOCC2)c1 [Compound No. 158, 3-[N-(4-carboxyphenyl)methyl]-n-amylaminobenzoic acid morpholide] | 7.2 |  |  |  |  | 190 | 0.37 | 1.7 | 74 |  |  |  |  | 0 | 0/5 | 18
CCCCC(=O)N(Cc1ccc(-c2ccccc2-c2nn[nH]n2)cc1)c1cc(C(=O)N2CCOCC2)ccc1N(C)C [Compound No. 591, 4-dimethylamino-3-N-[2'-[(1H-tetrazol-5-yl)biphenyl-4-yl]methyl]valeramidobenzoic acid morpholide] | 7.3 |  |  |  |  | 199 |  | 1.6 | 76 |  |  |  |  | 0 | 0/5 | 35
